Reference: patent US20260137638A1, “STAT3 INHIBITORS FOR USE IN THE TREATMENT OF NON-VIRAL LIVER CANCER” (Tyardi Operating Company, Inc., priority 2022, published 2026)

Test system: HCC
Test: Safety and efficacy study of TTI-101 in advanced solid tumors: best response (RECIST v1.1) in HCC participants
Format: in vivo, human
Details: for time partial response was sustained / best response: reduction in the sum of overall RECIST targets: non-viral HCC
Protocol: This study evaluates the safety and efficacy of TTI-101 in advanced solid tumors. TTI-101 was administered twice daily at doses of 1.6 (Cohort 1; n=4), 3.2 (Cohort 2; n=3), or 6.4 mg/kg/dose (Cohort 3; n=8) of a Labrasol/PEG400 formulation (60:40% v/v) or 6.4 mg/kg/dose (Cohort 3a: n=37) or 12.8 mg/kg/dose (Cohort 4; n=10) of oral capsule formulation (composition comprising TTI-101 at a concentration of 92 mg/g in a mixture of Kolliphor RH 40 (PEG-40 hydrogenated castor oil). PEG600. Polysorbate 20, Labrasol, and citric acid). TTI-101 was administered twice daily at 6.4 mg/kg/dose (Cohort 5; n=7) of oral tablet formulation (comprising 200 mg of TTI-101).
These patients had failed all prior lines of therapy (median number of prior therapies=3). Furthermore, a disease control rate (defined as the proportion of patients in whom the best overall response is determined as complete response, partial response or stable disease according to RECIST v1.1) of 60% has been observed in the 15 heavily pre-treated HCC patients (9/15), which is similar to that reported with sorafenib in first-line therapy.

[1] = number of participants, 7 non-viral HCC participants
[2] = number of participants, 8 viral HCC participants
[3] = number of participants, all 15 evaluable HCC participants

COc1ccc(S(=O)(=O)Nc2cc(-c3c(O)ccc4ccccc34)c(O)c3ccccc23)cc1 [TTI-101, N-(1′,2-dihydroxy-1,2′-binaphthalen-4′-yl)-4-methoxybenzenesulfonamide]
Disease Control Rate, HCC (non-viral) (7 non-viral HCC participants): 57%
Disease Control Rate, HCC (viral) (8 viral HCC participants): 63%
time partial response was sustained (Participant A, 6.4 mg/kg/day): 11 months
best response: reduction in the sum of overall RECIST targets (Participant A, 6.4 mg/kg/day, failed sorafenib, pembrolizumab, nivolumab, nivolumab+bevacizumab): 42%
time partial response was sustained (Participant B, 12.8 mg/kg/day): 14 months
best response: reduction in the sum of overall RECIST targets (Participant B, 12.8 mg/kg/day, failed lenvatinib and nivolumab): 66%
best response: reduction in the sum of overall RECIST targets (Participant C, 12.8 mg/kg/day, failed atezolizumab+bevacizumab): 45%
Disease Control Rate, HCC (complete response, partial response or stable disease by RECIST v1.1, 15 heavily pre-treated HCC patients (9/15)): 60%
Progressive Disease, HCC (non-viral) [1]: 3
Stable Disease, HCC (non-viral) [1]: 1
Partial Response, HCC (non-viral) (number of participants, 7 non-viral HCC participants, TTI-101 monotherapy): 3
Progressive Disease, HCC (viral) [2]: 3
Stable Disease, HCC (viral) [2]: 5
Partial Response, HCC (viral) (number of participants, 8 viral HCC participants, TTI-101 monotherapy): 0
Progressive Disease, HCC [3]: 6
Stable Disease, HCC [3]: 6
Partial Response, HCC (number of participants, all 15 evaluable HCC participants, TTI-101 monotherapy, after two 28-day cycles, radiologically confirmed): 3
